Experiments:
[1] = in vitro; details: male, Sprague-Dawley, rat
Procedure: The reaction mixture, minus cofactors, was prepared as described below. The test article was added into the reaction mixture at a final concentration of 1 μM. […] An aliquot of the reaction mixture (without cofactor cocktail) was equilibrated in a shaking water bath at 37° C. for 3 minutes. The reaction was initiated by the addition of cofactor cocktail, and the mixture was incubated in a shaking water bath at 37° C. Aliquots (100 μL) were withdrawn at 0, 10, 20, 30, and 60 minutes. All samples were immediately combined with 400 uL of icecold 50/50 acetonitrile/H2O containing 0.1% formic acid and internal standard to terminate the reaction. The samples were then mixed and centrifuged to precipitate proteins. Calibration standards were prepared in matched matrix. All samples and standards were assayed by LC-MS/MS using electrospray ionization for both the dosed prodrug I-9 and the expected drug (PEA). Analytical conditions are outlined in Appendix 4-1. The test article concentration at each time point was compared to the test article concentration at time 0 to determine the percent remaining at each time point. Half-lives were calculated using GraphPad software, fitting to single-phase exponential decay equation.
(§1) Reaction mixture, minus cofactors, was prepared as described below. Test article was added into the reaction mixture at a final concentration of 1 μM. […] An aliquot of the reaction mixture (without cofactor cocktail) was equilibrated in a shaking water bath at 37° C. for 3 minutes. The reaction was initiated by the addition of cofactor cocktail, and the mixture was incubated in a shaking water bath at 37° C. Aliquots (100 μL) were withdrawn at 0, 10, 20, 30, and 60 minutes. Test article samples were immediately combined with 300 μL of ice-cold acetonitrile containing 1% formic acid. Control samples were immediately combined with 400 μL of ice-cold 50/50 acetonitrile (ACN)/dH2O containing 0.1% formic acid and internal standard to terminate the reaction. Samples were then mixed and centrifuged to precipitate proteins. Calibration standards were prepared in matched matrix. Samples and standards were assayed by LC-MS/MS using electrospray ionization for both the dosed prodrug and the expected drug (PEA). Analytical conditions are outlined in Appendix 8-1. Test article concentration at each time point was compared to test article concentration at time 0 to determine the percent remaining at each time point. Halflives were calculated using GraphPad software, fitting to a single-phase exponential decay equation.
as §1, with “for 5” for “for 3”, “minutes. Reaction” for “minutes. The reaction”, “and” for “and the”, “both” for “both the”, “Appendix 10-1.” for “Appendix 8-1.”
Reaction mixture, minus cofactors, was prepared as described below.

[2] = in vitro; details: male, Beagle, dog
Procedure: as §1
as §1, with “for 5” for “for 3”, “minutes. Reaction” for “minutes. The reaction”, “and” for “and the”, “both” for “both the”, “Appendix 10-1.” for “Appendix 8-1.”
Reaction mixture, minus cofactors, was prepared as described below. Test article was added into the reaction mixture at a final concentration of 1 μM. […] An aliquot of the reaction mixture (without cofactor cocktail) was equilibrated in a shaking water bath at 37° C. for 3 minutes. Reaction was initiated by the addition of cofactor cocktail, and the mixture was incubated in a shaking water bath at 37° C. Aliquots (100 μL) were withdrawn at 0, 10, 20, 30, and 60 minutes. Test article samples were immediately combined with 300 μL of ice-cold acetonitrile containing 1% formic acid. Control samples were immediately combined with 400 μL of ice-cold 50/50 acetonitrile (ACN)/dH2O containing 0.1% formic acid and internal standard to terminate the reaction. Samples were then mixed and centrifuged to precipitate proteins. Calibration standards were prepared in matched matrix. Samples and standards were assayed by LC-MS/MS using electrospray ionization for both dosed prodrug and expected drug (PEA). Analytical conditions are outlined in Appendix 13-1. Test article concentration at each time point was compared to test article concentration at time 0 to determine the percent remaining at each time point. Halflives were calculated using GraphPad software, fitting to a single-phase exponential decay equation.

CCCCCCCCCCCCCCCC(=O)NCCOC(=O)CCC(=O)OCC(COC(=O)CCC)OC(=O)CCC (stereo not shown) [Compound I-11]
Concentration (μM) of analyte PEA, 0 min ([1]; 0 min, 1 μM): 0 µM | Concentration (μM) of analyte PEA, 10 min ([1]; 10 min, 1 μM): 0.13 µM | Concentration (μM) of analyte PEA, 20 min ([1]; 20 min, 1 μM): 0.24 µM | Concentration (μM) of analyte PEA, 30 min ([1]; 30 min, 1 μM): 0.35 µM | Concentration (μM) of analyte PEA, 60 min ([1]; 60 min, 1 μM): 0.38 µM | % Remaining of Initial (n = 1), 0 min ([1]; s9, 0 h, 1 μM): 100% | % Remaining of Initial (n = 1), 10 min ([1]; s9, 10 min, 1 μM): 1.4% | % Remaining of Initial (n = 1), 20 min ([1]; s9, 20 min, 1 μM): <1.0% | % Remaining of Initial (n = 1), 30 min ([1]; s9, 0.5 h, 1 μM): <1.0% | % Remaining of Initial (n = 1), 60 min ([1]; s9, 1 h, 1 μM): <1.0% | microsomal CLint at 1 μM ([1]; s9, CLint (mL/min/mg protein)): 425 µL/min/mg | half-life at 1 μM ([1]; s9, Half-life (min)): 1.6 min | Concentration (μM) of analyte PEA, 0 min ([2]; 0 min, 1 μM): 0.032 µM | Concentration (μM) of analyte PEA, 10 min ([2]; 10 min, 1 μM): 0.23 µM | Concentration (μM) of analyte PEA, 20 min ([2]; 20 min, 1 μM): 0.38 µM | Concentration (μM) of analyte PEA, 30 min ([2]; 30 min, 1 μM): 0.74 µM | Concentration (μM) of analyte PEA, 60 min ([2]; 60 min, 1 μM): 0.88 µM | % Remaining of Initial (n = 1), 0 min ([2]; s9, 0 h, 1 μM): 100% | % Remaining of Initial (n = 1), 10 min ([2]; s9, 10 min, 1 μM): 1.8% | % Remaining of Initial (n = 1), 20 min ([2]; s9, 20 min, 1 μM): <1.0% | % Remaining of Initial (n = 1), 30 min ([2]; s9, 0.5 h, 1 μM): <1.0% | % Remaining of Initial (n = 1), 60 min ([2]; s9, 1 h, 1 μM): <1.0%

CCCCC/C=C\C/C=C\CCCCCCCC(=O)OCC(COC(=O)CCC(=O)OCCNC(=O)CCCCCCCCCCCCCCC)OC(=O)CCCCCCC/C=C\C/C=C\CCCCC (stereo not shown) [Compound I-13]
Concentration, analyte PEA ([1]; 0 min, 1 μM): 0 nM | Concentration, analyte PEA ([1]; 10 min, 1 μM): 20 nM | Concentration, analyte PEA ([1]; 20 min, 1 μM): 48 nM | Concentration, analyte PEA ([1]; 30 min, 1 μM): 64 nM | Concentration, analyte PEA ([1]; 60 min, 1 μM): 92 nM | % Remaining of Initial (n = 1) ([1]; s9, 0 h, 1 μM): 100% | % Remaining of Initial (n = 1) ([1]; s9, 10 min, 1 μM): 80% | % Remaining of Initial (n = 1) ([1]; s9, 20 min, 1 μM): 82% | % Remaining of Initial (n = 1) ([1]; s9, 0.5 h, 1 μM): 81% | % Remaining of Initial (n = 1) ([1]; s9, 1 h, 1 μM): 55% | microsomal CLint at 1 μM ([1]; s9, CLint): < 11.6 µL/min/mg | microsomal CLint at 1 μM ([1]; s9, CLint, calculated (in parentheses)): 8.59 µL/min/mg | half-life at 1 μM ([1]; s9, Half-life): > 60 min | half-life at 1 μM ([1]; s9, Half-life, calculated (in parentheses)): 81 min | Concentration, analyte PEA ([2]; 0 min, 1 μM): 58 nM | Concentration, analyte PEA ([2]; 10 min, 1 μM): 95 nM | Concentration, analyte PEA ([2]; 20 min, 1 μM): 100 nM | Concentration, analyte PEA ([2]; 30 min, 1 μM): 89 nM | Concentration, analyte PEA ([2]; 60 min, 1 μM): 170 nM | % Remaining of Initial (n = 1) ([2]; s9, 0 h, 1 μM): 100% | % Remaining of Initial (n = 1) ([2]; s9, 10 min, 1 μM): 67% | % Remaining of Initial (n = 1) ([2]; s9, 20 min, 1 μM): 63% | % Remaining of Initial (n = 1) ([2]; s9, 0.5 h, 1 μM): 46% | % Remaining of Initial (n = 1) ([2]; s9, 1 h, 1 μM): 49%

CCCCCCCCCCCCCCCC(=O)NCCOC(=O)CCC(=O)OC(COC(=O)CCC)COC(=O)CCC [Compound I-16]
Measured concentration of PEA (analyte) ([1]; 0 min, 1 μM): 0 µM | Measured concentration of PEA (analyte) ([1]; 10 min, 1 μM): 0.20 µM | Measured concentration of PEA (analyte) ([1]; 20 min, 1 μM): 0.28 µM | Measured concentration of PEA (analyte) ([1]; 30 min, 1 μM): 0.34 µM | Measured concentration of PEA (analyte) ([1]; 60 min, 1 μM): 0.38 µM | % Remaining of Initial ([1]; s9, 0 h, 1 μM): 100% | % Remaining of Initial ([1]; s9, 10 min, 1 μM): <1.0% | % Remaining of Initial ([1]; s9, 20 min, 1 μM): <1.0% | % Remaining of Initial ([1]; s9, 0.5 h, 1 μM): <1.0% | % Remaining of Initial ([1]; s9, 1 h, 1 μM): <1.0% | microsomal CLint at 1 μM ([1]; s9, CLint): > 691 µL/min/mg | half-life at 1 μM ([1]; s9, Half-life): < 1 min | Measured concentration of PEA (analyte) ([2]; 0 min, 1 μM): 0.042 µM | Measured concentration of PEA (analyte) ([2]; 10 min, 1 μM): 0.50 µM | Measured concentration of PEA (analyte) ([2]; 20 min, 1 μM): 0.57 µM | Measured concentration of PEA (analyte) ([2]; 30 min, 1 μM): 0.54 µM | Measured concentration of PEA (analyte) ([2]; 60 min, 1 μM): 0.68 µM | % Remaining of Initial ([2]; s9, 0 h, 1 μM): 100% | % Remaining of Initial ([2]; s9, 10 min, 1 μM): 1.7% | % Remaining of Initial ([2]; s9, 20 min, 1 μM): <1.0% | % Remaining of Initial ([2]; s9, 0.5 h, 1 μM): <1.0% | % Remaining of Initial ([2]; s9, 1 h, 1 μM): <1.0% | microsomal CLint at 1 μM ([2]; s9, CLint): > 69.3 µL/min/mg | half-life at 1 μM ([2]; s9, Half-life): < 10 min

From patent US11547681B2, “N-acylethanolamide derivatives and uses thereof” (ELIEM THERAPEUTICS, INC., priority 2016, dated 2023)
